In assay [1] the target is T1, cannabinoid receptor 2 (CNR2) (Homo sapiens, UniProt P34972).
T1 construct: host or cells: CHO-K1
Put plainly: CB2 receptor agonist assay (cAMP Hunter eXpress, CNR2 CHO-K1 cells). Format: cell-based. To be noted: agonist mode, Forskolin-stimulated cAMP, CNR2 CHO-K1 cells. The procedure:
(§1) The assays were performed in cAMP Hunter eXpress cells engineered to overexpress naturally Gi/Go-coupled wildtype cannabinoid receptor 1 (CNR1) or cannabinoid receptor 2 (CNR2) in CHO-K1 cell type. In these cells, CB1 and/or […] agonists inhibit production of intracellular cAMP in response to stimulation with Forskolin. cAMP levels are determined using luminogenic detection reagents provided with the Hunter eXpress cAMP detection kit.
(§2) • Assay ready CNR1 CHO-K1 cells were obtained from Eurofins/Discover X, cat #95-0071E2 • Assay ready CNR2 CHO-K1 cells were obtained from Eurofins/Discover X, cat #95-0183E2 • Hunter eXpress cAMP detection kit was also from Discover X. The kit includes all cAMP detection reagents, Forskolin, complete cell plating medium and cell assay buffer.
The Assay-Ready CNR1 CHO-K1 or CNR2 CHO-K1 cells were thawed and re-suspended in pre-warmed Assay Complete plating medium and inoculated into 96 well plate at a density of 30,000 cells in 100 μL. The plates with cells were incubated for 24 h at 37° C. in 5% CO2. […] The cells were stimulated with the Forskolin/compound buffer for 30 min. After stimulation, 15 μL of cAMP antibody reagent and 60 μL of cAMP working detection solution were added to the cells and, the cells were incubated for 1 h at room temperature. After 1 h incubation, 60 μL of cAMP Solution A was added to the wells and the plate was incubated for 3 h at room temperature. The plate was read on Biotek Synergy Neo2 reader in luminescent mode. CB1 and CB2 agonists should reduce cAMP production in response to Forskilin. Relative luminescence units (RLUs) were plotted against compound concentration to determine apparent EC50 values of the agonist compounds.

Assay [2] has as its target T2, cannabinoid receptor 1 (CNR1) (Homo sapiens, UniProt P21554).
T2 construct: host or cells: CHO-K1
Put plainly: CB1 receptor agonist assay (cAMP Hunter eXpress, CNR1 CHO-K1 cells). To be noted: agonist mode, Forskolin-stimulated cAMP. It counts as cell-based. The procedure:
as §1, §2
The Assay-Ready CNR1 CHO-K1 or CNR2 CHO-K1 cells were thawed and re-suspended in pre-warmed Assay Complete plating medium and inoculated into 96 well plate at a density of 30,000 cells in 100 μL. The plates with cells were incubated for 24 h at 37° C. in 5% CO2. […] The cells were stimulated with the Forskolin/compound buffer for 30 min. […] The plate was read on Biotek Synergy Neo2 reader in luminescent mode. […] Relative luminescence units (RLUs) were plotted against compound concentration to determine apparent EC50 values of the agonist compounds.

Some results are limits rather than exact numbers.

T1 sequence (P34972 whole entry): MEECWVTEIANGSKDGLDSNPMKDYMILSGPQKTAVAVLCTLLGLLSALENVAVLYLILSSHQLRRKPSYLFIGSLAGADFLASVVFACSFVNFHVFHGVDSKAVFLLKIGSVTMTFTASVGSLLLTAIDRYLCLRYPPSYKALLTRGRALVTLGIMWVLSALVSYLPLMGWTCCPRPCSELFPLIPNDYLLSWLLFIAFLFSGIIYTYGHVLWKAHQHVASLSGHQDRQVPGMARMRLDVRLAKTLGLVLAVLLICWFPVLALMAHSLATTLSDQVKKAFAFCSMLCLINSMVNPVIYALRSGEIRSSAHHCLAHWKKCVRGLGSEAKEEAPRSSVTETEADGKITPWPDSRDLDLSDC
T2 sequence (P21554 whole entry): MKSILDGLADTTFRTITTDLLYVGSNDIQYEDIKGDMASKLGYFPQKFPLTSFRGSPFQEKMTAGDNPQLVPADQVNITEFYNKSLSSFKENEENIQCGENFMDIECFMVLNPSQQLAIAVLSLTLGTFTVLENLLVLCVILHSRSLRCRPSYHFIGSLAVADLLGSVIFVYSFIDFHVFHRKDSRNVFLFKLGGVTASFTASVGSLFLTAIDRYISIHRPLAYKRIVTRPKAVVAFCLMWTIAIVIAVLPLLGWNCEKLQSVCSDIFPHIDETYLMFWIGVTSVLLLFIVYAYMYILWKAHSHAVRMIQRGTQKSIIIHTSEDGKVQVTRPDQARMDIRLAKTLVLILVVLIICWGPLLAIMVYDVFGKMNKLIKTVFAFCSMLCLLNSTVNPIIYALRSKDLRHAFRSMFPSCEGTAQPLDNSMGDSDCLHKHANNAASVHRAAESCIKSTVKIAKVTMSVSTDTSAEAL

In general, IC50 refers to the point on the concentration scale where inhibition reaches its midpoint. Take Cannabigerol Quinone [Formula VI]: the results for the IC50 in assay [1] and in assay [2] were 120 nM and over 3000 nM, respectively.

(Values after patent publication US20250073184A1, “CANNABIGEROQUINONE COMPOUNDS, COMPOSITIONS INCLUDING SUCH COMPOUNDS, AND USES OF SUCH COMPOUNDS AND COMPOSITIONS” (Juva Life, Inc., priority 2021, published 2025).)
